According to ChEMBL document CHEMBL3580566, “Identification of 2-[4-[(4-Methoxyphenyl)methoxy]-phenyl]acetonitrile and Derivatives as Potent Oct3/4 Inducers” (2015):
Values belong to the compound of their own block, whether it stands above or below them. Activity calls are given as the source filed them. The rule behind the calls is not given here.

What was measured:
[1] = biological target: POU domain, class 5, transcription factor 1 (Homo sapiens) (UniProt Q01860); experiment: Activation of human Oct3/4 in NCCIT cells transfected with firefly luciferase gene assessed as relative luciferase activity after 72 hrs by luminometer plate reader relative to DMSO control; type: cell-based
Chain of POU domain, class 5, transcription factor 1 (Homo sapiens) (Q01860 whole entry, the tested form may be a part): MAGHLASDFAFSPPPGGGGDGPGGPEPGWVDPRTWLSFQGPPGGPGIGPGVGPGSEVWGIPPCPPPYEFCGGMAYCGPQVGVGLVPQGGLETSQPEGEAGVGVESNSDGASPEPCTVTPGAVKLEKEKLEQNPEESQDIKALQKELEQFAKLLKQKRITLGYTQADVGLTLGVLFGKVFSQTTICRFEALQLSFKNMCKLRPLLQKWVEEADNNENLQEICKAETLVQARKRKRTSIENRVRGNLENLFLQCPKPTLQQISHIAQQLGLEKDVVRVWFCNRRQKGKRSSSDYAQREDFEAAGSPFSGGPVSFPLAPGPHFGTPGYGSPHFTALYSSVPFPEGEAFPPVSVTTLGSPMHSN

[2] = biological target: POU domain, class 5, transcription factor 1 (Homo sapiens) (UniProt Q01860); experiment: Activation of human Oct3/4 in HEK293 cells transfected with firefly luciferase gene assessed as relative luciferase activity after 72 hrs by luminometer plate reader relative to DMSO control; type: cell-based
[3] = biological target: POU domain, class 5, transcription factor 1 (Homo sapiens) (UniProt Q01860); experiment: Activation of human Oct3/4 in HEK293 cells transfected with firefly luciferase gene assessed as luciferase signal by luminometer plate reader relative to DMSO control; type: cell-based
[4] = biological target: POU domain, class 5, transcription factor 1 (Homo sapiens) (UniProt Q01860); experiment: Activation of human Oct3/4 in HEK293 cells transfected with firefly luciferase gene assessed as relative luciferase activity after 48 to 72 hrs by luminometer plate reader relative to DMSO control; type: cell-based
[5] = biological target: POU domain, class 5, transcription factor 1 (Homo sapiens) (UniProt Q01860); experiment: Activation of human Oct3/4 in HEK293 cells transfected with firefly luciferase gene assessed as relative luciferase activity at 5 uM after 48 hrs by luminometer plate reader relative to DMSO control; type: cell-based
[6] = biological target: POU domain, class 5, transcription factor 1 (Homo sapiens) (UniProt Q01860); experiment: Activation of human Oct3/4 in HEK293 cells transfected with firefly luciferase gene assessed as relative luciferase activity at 5 uM after 72 hrs by luminometer plate reader relative to DMSO control; type: cell-based
[7] = biological target: POU domain, class 5, transcription factor 1 (Homo sapiens) (UniProt Q01860); experiment: Activation of human Oct3/4 in HEK293 cells transfected with firefly luciferase gene assessed as relative luciferase activity at 5 uM by luminometer plate reader relative to DMSO control; type: cell-based; conditions: TDE = time-dependent effect
[8] = system: HEK293; experiment: Induction of human Oct3/4 expression in HEK293 cells transfected with firefly luciferase gene assessed as increase in mRNA level at 10 uM after 72 hrs by qRT-PCT analysis; type: functional
[9] = system: HEK293; experiment: Induction of human Oct3/4 expression in HEK293 cells transfected with firefly luciferase gene assessed as increase in mRNA level at 20 uM after 72 hrs by qRT-PCT analysis; type: functional
[10] = system: HEK293; experiment: Induction of human Oct3/4 protein expression in HEK293 cells assessed as increase in protein expression at 6 uM after 48 hrs by immunoblotting analysis relative to DMSO control; type: functional, cell-based
[11] = system: HEK293; experiment: Induction of human Oct3/4 protein expression in HEK293 cells assessed as increase in protein expression after 48 hrs by immunoblotting analysis relative to DMSO control; type: functional, cell-based
[12] = system: HEK293; experiment: Induction of human Sox2 protein expression in HEK293 cells assessed as increase in protein expression at 0.5 to 20 uM after 48 hrs by immunoblotting analysis relative to DMSO control; type: functional, cell-based
[13] = system: HEK293; experiment: Induction of human Nanog protein expression in HEK293 cells assessed as increase in protein expression at 0.5 to 20 uM after 48 hrs by immunoblotting analysis relative to DMSO control; type: functional, cell-based
[14] = system: HEK293; experiment: Induction of human Oct3/4 protein expression in HEK293 cells assessed as increase in protein expression at 10 uM after 24 hrs by immunoblotting analysis relative to DMSO control; type: functional, cell-based
[15] = system: HEK293; experiment: Induction of human Sox2 protein expression in HEK293 cells assessed as increase in protein expression at 10 uM after 24 hrs by immunoblotting analysis relative to DMSO control; type: functional, cell-based
[16] = system: HEK293; experiment: Induction of human Sox2 protein expression in HEK293 cells assessed as increase in protein expression at 10 uM after 96 hrs by immunoblotting analysis relative to DMSO control; type: functional, cell-based
[17] = system: HEK293; experiment: Induction of human Sox2 protein expression in HEK293 cells assessed as increase in protein expression at 10 uM after 48 hrs by immunoblotting analysis relative to DMSO control; type: functional, cell-based
[18] = system: HEK293; experiment: Induction of human Oct3/4 protein expression in HEK293 cells assessed as increase in protein expression at 10 uM after 48 hrs by immunoblotting analysis relative to DMSO control; type: functional, cell-based
[19] = system: HEK293; experiment: Induction of human Oct3/4 protein expression in HEK293 cells assessed as increase in protein expression at 10 uM after 96 hrs by immunoblotting analysis relative to DMSO control; type: functional, cell-based
[20] = system: Fibroblast; experiment: Induction of human Oct3/4 protein expression in human adult primary fibroblasts assessed as increase in protein expression at 10 uM after 72 hrs by immunoblotting analysis relative to control; type: functional, cell-based
[21] = system: HFF; experiment: Induction of human Oct3/4 protein expression in human neonatal foreskin fibroblasts assessed as increase in protein expression at 10 uM after 72 hrs by immunoblotting analysis relative to control; type: functional, cell-based
[22] = biological target: Homeobox protein NANOG (Homo sapiens) (UniProt Q9H9S0); experiment: Activation of human Nanog in NCCIT cells transfected with firefly luciferase gene assessed as relative luciferase activity up to 72 hrs by luminometer plate reader relative to DMSO control; type: cell-based
Chain of Homeobox protein NANOG (Homo sapiens) (Q9H9S0 whole entry): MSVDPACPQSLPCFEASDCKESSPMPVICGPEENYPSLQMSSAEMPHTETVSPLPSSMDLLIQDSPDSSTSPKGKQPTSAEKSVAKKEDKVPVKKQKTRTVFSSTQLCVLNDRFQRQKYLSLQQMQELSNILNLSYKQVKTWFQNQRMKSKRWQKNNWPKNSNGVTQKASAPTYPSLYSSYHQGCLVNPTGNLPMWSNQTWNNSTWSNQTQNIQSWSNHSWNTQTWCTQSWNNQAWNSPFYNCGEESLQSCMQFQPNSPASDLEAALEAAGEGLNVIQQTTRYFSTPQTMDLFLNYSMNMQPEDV

[23] = system: NCCIT; experiment: Induction of Oct3/4 accumulation in human NCCIT cells at 10 uM after 48 hrs by immunolotting analysis; type: functional, cell-based
[24] = system: HeLa; experiment: Induction of Oct3/4 accumulation in human HeLa cells at 10 uM after 48 hrs by immunolotting analysis; type: functional, cell-based
[25] = system: NCCIT; experiment: Induction of Nanog accumulation in human NCCIT cells at 10 uM after 48 hrs by immunolotting analysis; type: functional, cell-based
[26] = system: HeLa; experiment: Induction of Nanog accumulation in human HeLa cells at 10 uM after 48 hrs by immunolotting analysis; type: functional, cell-based
[27] = system: Fibroblast; experiment: Induction of human Oct3/4 protein expression in human adult primary fibroblasts assessed as increase in protein expression at 20 uM after 72 hrs by immunoblotting analysis relative to control; type: functional, cell-based
[28] = system: Fibroblast; experiment: Induction of human Lin28 protein expression in human adult primary fibroblasts assessed as increase in protein expression at 20 uM after 72 hrs by immunoblotting analysis relative to control; type: functional, cell-based
[29] = system: Fibroblast; experiment: Induction of human Sox2 protein expression in human adult primary fibroblasts assessed as increase in protein expression at 20 uM after 72 hrs by immunoblotting analysis relative to control; type: functional, cell-based
[30] = system: Fibroblast; experiment: Induction of human Nanog protein expression in human adult primary fibroblasts assessed as increase in protein expression at 20 uM after 72 hrs by immunoblotting analysis relative to control; type: functional, cell-based
[31] = biological target: POU domain, class 5, transcription factor 1 (Homo sapiens) (UniProt Q01860); experiment: Activation of human Oct3/4 in human adult primary fibroblasts at 20 uM by immunoblotting analysis relative to control; conditions: TDE = time-dependent effect
[32] = system: Fibroblast; experiment: Induction of human Oct3/4 gene expression in human adult primary fibroblasts assessed as increase in mRNA level at 20 uM after 48 hrs by qRT-PCR analysis relative to control; type: functional
[33] = system: Fibroblast; experiment: Induction of human Nanog gene expression in human adult primary fibroblasts assessed as increase in mRNA level at 20 uM after 48 hrs by qRT-PCR analysis relative to control; type: functional
[34] = system: Fibroblast; experiment: Induction of human Klf4 gene expression in human adult primary fibroblasts assessed as increase in mRNA level at 20 uM after 48 hrs by qRT-PCR analysis relative to control; type: functional
[35] = system: Fibroblast; experiment: Induction of human Rex1 gene expression in human adult primary fibroblasts assessed as increase in mRNA level at 20 uM after 48 hrs by qRT-PCR analysis relative to control; type: functional
[36] = system: Fibroblast; experiment: Induction of human c-Myc gene expression in human adult primary fibroblasts assessed as increase in mRNA level at 20 uM after 48 hrs by qRT-PCR analysis relative to control; type: functional
[37] = system: Fibroblast; experiment: Induction of human E-Cadherin level in human adult primary fibroblasts assessed as increase in protein level at 20 uM after 72 hrs by FACS analysis relative to control; type: functional, cell-based
[38] = system: Fibroblast; experiment: Induction of human Nanog protein expression in human adult primary fibroblasts assessed as increase in protein level at 20 uM after 5 days by Hoechst 33258 staining based immunostaining relative to control; type: functional, cell-based
[39] = system: Fibroblast; experiment: Induction of human KLF4 protein expression in human adult primary fibroblasts assessed as increase in protein level at 20 uM after 5 days by Hoechst 33258 staining based immunostaining relative to control; type: functional, cell-based
[40] = system: Fibroblast; experiment: Induction of human Oct3/4 protein expression in human adult primary fibroblasts assessed as increase in protein level at 20 uM after 5 days by Hoechst 33258 staining based immunostaining relative to control; type: functional, cell-based
[41] = system: Fibroblast; experiment: Induction of human Sox2 protein expression in human adult primary fibroblasts assessed as increase in protein level at 20 uM after 5 days by Hoechst 33258 staining based immunostaining relative to control; type: functional, cell-based
[42] = system: Fibroblast; experiment: Induction of human Oct3/4 and Sox2 protein expression in human adult primary fibroblasts assessed as positive cells normalized to total number of cells; type: functional, cell-based
[43] = system: Fibroblast; experiment: Induction of human Oct3/4 protein expression in human adult primary fibroblasts assessed as positive cells normalized to total number of cells; type: functional
[44] = system: Fibroblast; experiment: Induction of human Sox2 protein expression in human adult primary fibroblasts assessed as positive cells normalized to total number of cells; type: functional
[45] = system: Fibroblast; experiment: Induction of cell cycle arrest in human adult primary fibroblasts assessed as accumulation of cells at G1 phase at 20 uM after 5 days by propidium iodide staining assay (reference value: 74%); type: functional
[46] = system: Fibroblast; experiment: Induction of cell cycle arrest in human adult primary fibroblasts assessed as accumulation of cells at S phase at 20 uM after 5 days by propidium iodide staining assay (reference value: 2%); type: functional

- fold change (FC) [3]: 5
- Activity [4]: Dose-dependent effect
- fold change (FC) [5]: 2
- fold change (FC) [6]: 3
- Activity [7]: tde
- RLU [1]: 2.68
- RLU [2]: 3.85
- Activity [22]: Active
SMILES: COc1ccc(COc2ccc(CC#N)cc2)cc1
- fold change (FC) [8]: 2.5
- fold change (FC) [9]: 4
- Activity [10]: Active
- Activity [11]: Dose-dependent effect
- Activity [12]: Active
- Activity [13]: Active
- Activity [14]: Active
- Activity [15]: Active
- Activity [16]: Active
- Activity [17]: Active
- Activity [18]: Active
- Activity [19]: Active
- Activity [20]: Active
- Activity [21]: Active

- RLU [1]: 4.02
- RLU [2]: 6.58
- Activity [22]: Active
- Activity [31]: tde
SMILES: N#CCc1ccc(OCc2ccc(F)cc2)cc1
- Activity [23]: Active
- Activity [24]: Active
- Activity [25]: Active
- Activity [26]: Active
- Activity [27]: Active
- Activity [28]: Active
- Activity [29]: Active
- Activity [30]: Active
- fold change (FC) [32]: 7
- fold change (FC) [33]: 12
- fold change (FC) [34]: 6
- fold change (FC) [35]: 1.3
- fold change (FC) [36]: 2
- Activity [37]: Active
- Activity [38]: Active
- Activity [39]: Active
- Activity [40]: Active
- Activity [41]: Active
- Activity [42]: Active
- Activity [43]: 6%
- Activity [44]: 9%
- Activity [45]: 66%
- Activity [46]: 7%

- RLU [1]: 2.26
- RLU [2]: 5.83
SMILES: N#Cc1ccc(OCc2ccc(F)cc2)cc1

- RLU [1]: 1.88
- RLU [2]: 1.79
SMILES: N#CCc1ccc(OCc2ccc(C#N)cc2)cc1

- RLU [1]: 2.26
- RLU [2]: 2
SMILES: Cc1ccc(COc2ccc(CC#N)cc2)cc1

More lines, now with the values behind:

SMILES: N#CCc1ccc(OCc2ccc(-c3ccccc3)cc2)cc1
- RLU [1]: 0.73
- RLU [2]: 0.84

SMILES: N#CCc1ccc(OCc2ccc([N+](=O)[O-])cc2)cc1
- RLU [1]: 2.61
- RLU [2]: 4.02

SMILES: COc1ccc(COc2ccc(C#N)cc2)cc1
- RLU [1]: 0.99
- RLU [2]: 3

SMILES: N#Cc1ccc(OCc2ccc([N+](=O)[O-])cc2)cc1
- RLU [1]: 1.08
- RLU [2]: 2.65

SMILES: N#Cc1ccc(OCc2ccc(OC(F)(F)F)cc2)cc1
- RLU [1]: 1.5
- RLU [2]: 3.4

SMILES: N#CCc1ccc(OCc2ccc(OC(F)(F)F)cc2)cc1
- RLU [1]: 2.14
- RLU [2]: 4.9
